Measured values as given in ChEMBL document CHEMBL4229570, “Pyrrolo[2,1-c][1,4] benzodiazepine-3,11-diones protect SHSY-5Y cells from Cd-induced apoptosis involving suppression of endoplasmic reticulum stress” (Bioorg Med Chem, 2018).
Active and inactive are the calls of the source. The rule behind the calls is not given here.

Assays:
SH-SY5Y [1] = assay: Neuroprotective activity against CdCl2-induced toxicity in human SH-SY5Y cells assessed as cell viability at 25 uM preincubated for 2 hrs followed by CdCl2 challenge and measured after 24 hrs by CCK8 assay (reference value: 46.2 +/- 1.7%); format: functional; settings: read-out: Activity
SH-SY5Y [2] = assay: Neuroprotective activity against CdCl2-induced endoplasmic reticulum stress-mediated apoptosis in human SH-SY5Y cells assessed as downregulation of cleaved caspase-12 protein expression at 25 uM preincubated for 2 hrs followed by CdCl2 challenge and measured after 24 hrs by Western blot analysis; format: functional, cell-based
SH-SY5Y [3] = assay: Neuroprotective activity against CdCl2-induced endoplasmic reticulum stress-mediated apoptosis in human SH-SY5Y cells assessed as downregulation of GRP78 protein expression at 25 uM preincubated for 2 hrs followed by CdCl2 challenge and measured after 24 hrs by Western blot analysis; format: functional, cell-based
SH-SY5Y [4] = assay: Induction of apoptosis in human SH-SY5Y cells at 25 uM after 24 hrs by annexin V/propidium iodide staining-based flow cytometric analysis relative to control; format: cell-based
SH-SY5Y [5] = assay: Neuroprotective activity against CdCl2-induced apoptosis in human SH-SY5Y cells assessed as apoptosis rate at 25 uM preincubated for 2 hrs followed by CdCl2 challenge and measured after 24 hrs by annexin V/propidium iodide staining-based flow cytometric analysis (reference value: 73.2%); format: functional
SH-SY5Y [6] = assay: Neuroprotective activity against CdCl2-induced endoplasmic reticulum stress-mediated apoptosis in human SH-SY5Y cells assessed as downregulation of cleaved caspase-3 protein expression at 25 uM preincubated for 2 hrs followed by CdCl2 challenge and measured after 24 hrs by Western blot analysis; format: functional, cell-based
SH-SY5Y [7] = assay: Neuroprotective activity against CdCl2-induced endoplasmic reticulum stress-mediated apoptosis in human SH-SY5Y cells assessed as downregulation of CHOP protein expression at 25 uM preincubated for 2 hrs followed by CdCl2 challenge and measured after 24 hrs by Western blot analysis; format: functional, cell-based

O=C1[C@@H]2CCC(=O)N2Cc2ccccc2N1CCCN1CCN(c2ccccn2)CC1
viability at 25 µM (SH-SY5Y [1]): 56.7%

O=C1[C@@H]2CCC(=O)N2Cc2ccccc2N1CCCCCN1CCN(c2ccccn2)CC1
viability at 25 µM (SH-SY5Y [1]): 59.2%

O=C1Nc2ccc(Br)cc2CN2C(=O)CC[C@H]12
viability at 25 µM (SH-SY5Y [1]): 60.4%

Cc1ccc(-c2ccc3c(c2)CN2C(=O)CC[C@H]2C(=O)N3)cc1
viability at 25 µM (SH-SY5Y [1]): 33.9%

O=C1[C@@H]2CCC(=O)N2Cc2cc(Br)ccc2N1CCCCN1CCN(c2ncccn2)CC1
viability at 25 µM (SH-SY5Y [1]): 63.1%

O=C1Nc2ccccc2CN2C(=O)CC[C@@H]12
viability at 25 µM (SH-SY5Y [1]): 52.2%

COc1cc2c(cc1O)CN1C(=O)CC[C@H]1C(=O)N2
viability at 25 µM (SH-SY5Y [1]): 55.7%

O=C1[C@@H]2CCC(=O)N2Cc2ccccc2N1CCCCCN1CCN(c2ncccn2)CC1
viability at 25 µM (SH-SY5Y [1]): 51.4%

O=C1[C@@H]2CCC(=O)N2Cc2ccccc2N1CCCCN1CCN(c2ccccn2)CC1
viability at 25 µM (SH-SY5Y [1]): 66.2%

O=C1Nc2ccc(Cl)cc2CN2C(=O)CC[C@H]12
viability at 25 µM (SH-SY5Y [1]): 56.2%

COc1cc2c(cc1O)CN1C(=O)CC[C@@H]1C(=O)N2
viability at 25 µM (SH-SY5Y [1]): 56.8%

O=C1Nc2ccc(Cl)cc2CN2C(=O)CC[C@@H]12
viability at 25 µM (SH-SY5Y [1]): 61.4%

O=C1[C@@H]2CCC(=O)N2Cc2cc(Br)ccc2N1CCCCN1CCN(c2ccccn2)CC1
viability at 25 µM (SH-SY5Y [1]): 62.4%

O=C1Nc2cc3c(cc2CN2C(=O)CC[C@H]12)OCO3
viability at 25 µM (SH-SY5Y [1]): 56.6%

O=C1Nc2cc3c(cc2CN2C(=O)CC[C@@H]12)OCO3
viability at 25 µM (SH-SY5Y [1]): 59.2%

O=C1[C@@H]2CCC(=O)N2Cc2ccccc2N1CCCN1CCN(c2ncccn2)CC1
viability at 25 µM (SH-SY5Y [1]): 51.3%

O=C1Nc2ccccc2CN2C(=O)CC[C@H]12
viability at 25 µM (SH-SY5Y [1]): 48.4%

COc1cc2c(cc1OCc1ccccc1)CN1C(=O)CC[C@H]1C(=O)N2CCCCN1CCN(c2ncccn2)CC1
viability at 25 µM (SH-SY5Y [1]): 62.2%

COc1cc2c(cc1OCc1ccccc1)CN1C(=O)CC[C@@H]1C(=O)N2
viability at 25 µM (SH-SY5Y [1]): 60.4%

Cc1ccccc1-c1ccc2c(c1)CN1C(=O)CC[C@@H]1C(=O)N2
viability at 25 µM (SH-SY5Y [1]): 42.3%

COc1cc2c(cc1OCc1ccccc1)CN1C(=O)CC[C@H]1C(=O)N2CCCCN1CCN(c2ccccn2)CC1
Activity (SH-SY5Y [2]): Active | Activity (SH-SY5Y [3]): Active | Activity (SH-SY5Y [4]): 4.2 to 5% | Activity (SH-SY5Y [5]): 18.7% | viability at 25 µM (SH-SY5Y [1]): 68.6% | Activity (SH-SY5Y [6]): Active | Activity (SH-SY5Y [7]): Active

Cc1ccccc1-c1ccc2c(c1)CN1C(=O)CC[C@H]1C(=O)N2
viability at 25 µM (SH-SY5Y [1]): 39.8%

O=C1Nc2ccc(Br)cc2CN2C(=O)CC[C@@H]12
viability at 25 µM (SH-SY5Y [1]): 66.1%

COc1cc2c(cc1OCc1ccccc1)CN1C(=O)CC[C@H]1C(=O)N2
viability at 25 µM (SH-SY5Y [1]): 66.2%

O=C1[C@@H]2CCC(=O)N2Cc2ccccc2N1CCCCN1CCN(c2ncccn2)CC1
viability at 25 µM (SH-SY5Y [1]): 59.2%

Cc1ccc(-c2ccc3c(c2)CN2C(=O)CC[C@@H]2C(=O)N3)cc1
viability at 25 µM (SH-SY5Y [1]): 36.2%
